The values that follow come from ChEMBL document CHEMBL1126820, “4-alkylamino-3-bromo-N-alkyl-1,8-naphthalimides: new photochemically activatable antiviral compounds” (1993).

Assay [1] has as its system Human immunodeficiency virus 1. Briefly: Concentration required for Photoinactivation of cell-associated HIV-1. Type of assay: functional.
The test system of assay [2] is Human immunodeficiency virus 1. Briefly: Concentration required for Photoinactivation of cell-free HIV-1. Type of assay: functional, organism-based.
The nature of assay [3]: Concentration required for Photoinactivation of enveloped viruses. Type of assay: functional.
Assay [4] relates to Human alphaherpesvirus 1. Description: Photoinactivation against simplex virus type 1. It counts as functional.

A value given as a limit tells only on which side of the number the result lay.

As to `CCCCCCN1C(=O)c2cccc3c(NCCNC(=O)CCCCC(=O)NCCNc4c(Br)cc5c6c(cccc46)C(=O)N(CCCCCC)C5=O)c(Br)cc(c23)C1=O`, the Activity in assay [1] was 300 nM; in assay [2], 1 µM; in assay [3] it was 0.1 µM; in assay [4], below 500 nM.

With `CCCCNc1c(Br)cc2c3c(cccc13)C(=O)N(CCCC)C2=O`, in assay [3], the Activity amounted to 0.1 µM. On the same count and under the same terms, the value for `CCCCCCCCNc1c(Br)cc2c3c(cccc13)C(=O)N(CCCCCCCC)C2=O` was 0.1 µM; that for `CCCCCCNc1c(Br)cc2c3c(cccc13)C(=O)N(CCCCCC)C2=O` was 0.1 µM.
